# Paper PMC9974930 (Journal of medicinal chemistry, 2023)
# Biological target: T1, recombinant human sEH (HsEH) (Homo sapiens, UniProt P34913)
# T1 sequence (P34913 1-555): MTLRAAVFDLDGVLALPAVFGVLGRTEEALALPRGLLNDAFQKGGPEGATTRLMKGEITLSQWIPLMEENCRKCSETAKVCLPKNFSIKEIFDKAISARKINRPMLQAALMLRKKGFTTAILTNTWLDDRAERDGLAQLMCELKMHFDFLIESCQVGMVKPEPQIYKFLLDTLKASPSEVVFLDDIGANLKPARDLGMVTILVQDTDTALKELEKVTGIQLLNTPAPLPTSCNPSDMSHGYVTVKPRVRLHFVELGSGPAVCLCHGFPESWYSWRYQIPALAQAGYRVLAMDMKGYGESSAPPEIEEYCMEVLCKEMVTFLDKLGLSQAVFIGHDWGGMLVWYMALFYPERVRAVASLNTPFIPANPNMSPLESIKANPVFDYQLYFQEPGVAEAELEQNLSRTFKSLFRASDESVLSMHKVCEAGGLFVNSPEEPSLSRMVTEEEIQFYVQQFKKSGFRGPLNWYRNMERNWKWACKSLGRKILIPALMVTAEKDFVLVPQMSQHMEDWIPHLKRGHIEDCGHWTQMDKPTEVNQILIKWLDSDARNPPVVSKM
# Assay: biochemical
# Conditions: LLE = pIC50-cLogP
row,Structure (SMILES),LLE (ligand lipophilicity efficiency)
1,"CC(O)CNC(=O)C1CCCN(C(=O)c2ccc(NC(=O)N[C@]34C[C@@H]5C[C@@](C)(C[C@@](C)(C5)C3)C4)c(F)c2)C1 (stereo partly drawn) [B3, 1-(4-(3-((1r,3R,5S,7S)-3,5-Dimethyladamantan-1-yl)ureido)-3-fluorobenzoyl)-N-(2-hydroxypropyl)piperidine-3-carboxamide]",6.779
2,"C=CC(=O)N1CCCN(C(=O)C2CCCN(Cc3ccc(NC(=O)N[C@@]45C[C@@H]6C[C@@](C)(C[C@@](C)(C6)C4)C5)c(F)c3)C2)CC1 (stereo partly drawn) [G3, 1-(4-((3-(4-acryloyl-1,4-Diazepane-1-carbonyl)piperidin-1-yl)methyl)-2-fluorophenyl) −3-((1r,3R,5S,7r)-3,5-dimethyladamantan-1-yl)urea]",5.598
3,"CCC(=O)N1CCC(CC(=O)N2CCCN(C(=O)c3ccc(NC(=O)N[C@@]45C[C@@H]6C[C@@](C)(C[C@@](C)(C6)C4)C5)c(F)c3)CC2)CC1 [H1, 1-((1r,3R,5S,7r)-3,5-Dimethyladamantan-1-yl)-3-(2-fluoro-4-(4-(2-(1-propionylpiperidin-4-yl)acetyl)-1,4-diazepane-1-carbonyl)phenyl)urea]",5.848
4,"CCC(C)C(=O)N1CCCN(C(=O)C2CCCN(Cc3ccc(NC(=O)N[C@@]45C[C@@H]6C[C@@](C)(C[C@@](C)(C6)C4)C5)c(F)c3)C2)CC1 (stereo partly drawn) [G2, 1-((1r,3R,5S,7r)-3,5-Dimethyladamantan-1-yl)-3-(2-fluoro-4-((3-(4-(2-methylbutanoyl) −1,4-diazepane-1-carbonyl)piperidin-1-yl)methyl)phenyl)urea]",4.986
5,"C[C@]12C[C@@H]3C[C@](C)(C1)C[C@@](NC(=O)Nc1ccc(C(=O)NC4CCC(C(N)=O)CC4)cc1F)(C3)C2 (stereo partly drawn) [C6, N-(4-Carbamoylcyclohexyl)-4-(3-((1r,3R,5S,7r)-3,5-dimethyladamantan-1-yl)ureido)-3-fluorobenzamide]",5.746
6,"CCN(CC)C(=O)C1CCCN(Cc2ccc(NC(=O)N[C@@]34C[C@@H]5C[C@@](C)(C[C@@](C)(C5)C3)C4)c(F)c2)C1 (stereo partly drawn) [D3, 1-(4-(3-((1r,3R,5S,7r)-3,5-Dimethyladamantan-1-yl)ureido)-3-fluorobenzyl)-N,N-diethylpiperidine-3-carboxamide]",4.957
7,"C[C@]12C[C@@H]3C[C@](C)(C1)C[C@@](NC(=O)Nc1ccc(CN4CCCC(C(=O)NC(CO)(CO)CO)C4)cc1F)(C3)C2 (stereo partly drawn) [D8, N-(1,3-Dihydroxy-2-(hydroxymethyl)propan-2-yl)-1-(4-(3-((1r,3R,5S,7r)-3,5-dimethyladamantan-1-yl)ureido)-3-fluorobenzyl)piperidine-3-carboxamide]",7.992
8,"C[C@]12C[C@@H]3C[C@](C)(C1)C[C@@](NC(=O)Nc1ccc(CN4CCC(C(=O)NC(CO)CO)CC4)cc1F)(C3)C2 [E3, N-(1,3-Dihydroxypropan-2-yl)-1-(4-(3-((1r,7r)-3,5-dimethyladamantan-1-yl)ureido)-3-fluorobenzyl)piperidine-4-carboxamide]",5.090
9,"CN(C)CCN1CCC(CC(=O)N2CCCN(Cc3ccc(NC(=O)N[C@@]45C[C@@H]6C[C@@](C)(C[C@@](C)(C6)C4)C5)c(F)c3)CC2)CC1 [I7, 1-((1r,3R,5S,7r)-3,5-Dimethyladamantan-1-yl)-3-(4-((4-(2-(1-(2-(dimethylamino)ethyl)piperidin-4-yl)acetyl)-1,4-diazepan-1-yl)methyl)-2-fluorophenyl)urea]",4.517
10,"C[C@]12C[C@@H]3C[C@](C)(C1)C[C@@](NC(=O)Nc1ccc(CN4CCC(C(=O)NC(CO)(CO)CO)CC4)cc1F)(C3)C2 [E4, N-(1,3-Dihydroxy-2-(hydroxymethyl)propan-2-yl)-1-(4-(3-((1r,7r)-3,5-dimethyladamantan-1-yl)ureido)-3-fluorobenzyl)piperidine-4-carboxamide]",6.459
11,"C[C@]12C[C@@H]3C[C@](C)(C1)C[C@@](NC(=O)Nc1ccc(C(=O)NC4CCC(C(=O)N(CCO)CCO)CC4)cc1F)(C3)C2 (stereo partly drawn) [C5, N-(4-(Bis(2-hydroxyethyl)carbamoyl)cyclohexyl)-4-(3-((1r,3R,5S,7r)-3,5-dimethyladamantan-1-yl)ureido)-3-fluorobenzamide]",5.869
12,"CCN(CC)C(=O)C1CCN(C(=O)c2ccc(NC(=O)N[C@@]34C[C@@H]5C[C@@](C)(C[C@@](C)(C5)C3)C4)c(F)c2)CC1 [A1, 1-(4-(3-((1r,3R,5S,7r)-3,5-Dimethyladamantan-1-yl)ureido)-3-fluorobenzoyl)-N,N-diethylpiperidine-4-carboxamide]",4.954
13,"CC(O)CNC(=O)C1CCC(NC(=O)c2ccc(NC(=O)N[C@@]34C[C@@H]5C[C@@](C)(C[C@@](C)(C5)C3)C4)c(F)c2)CC1 (stereo partly drawn) [C4, 4-(3-((1r,3R,5S,7r)-3,5-Dimethyladamantan-1-yl)ureido)-3-fluoro-N-(4-((2-hydroxypropyl)carbamoyl)cyclohexyl)benzamide]",5.438
14,"C[C@]12C[C@@H]3C[C@](C)(C1)C[C@@](NC(=O)Nc1ccc(C(=O)NC4CCC(C(=O)NCCO)CC4)cc1F)(C3)C2 (stereo partly drawn) [C3, 4-(3-((1r,3R,5S,7r)-3,5-Dimethyladamantan-1-yl)ureido)-3-fluoro-N-(4-((2-hydroxyethyl)carbamoyl)cyclohexyl)benzamide]",6.100
15,"C[C@]12C[C@@H]3C[C@](C)(C1)C[C@@](NC(=O)Nc1ccc(C(=O)N4CCC(C(=O)NCCO)CC4)cc1F)(C3)C2 [A2, 1-(4-(3-((1r,3R,5S,7r)-3,5-Dimethyladamantan-1-yl)ureido)-3-fluorobenzoyl)-N-(2-hydroxyethyl)piperidine-4-carboxamide]",6.203
16,"CC(O)CNC(=O)C1CCCN(Cc2ccc(NC(=O)N[C@@]34C[C@@H]5C[C@@](C)(C[C@@](C)(C5)C3)C4)c(F)c2)C1 (stereo partly drawn) [D4, 1-(4-(3-((1r,3R,5S,7r)-3,5-Dimethyladamantan-1-yl)ureido)-3-fluorobenzyl)-N-(2-hydroxypropyl)piperidine-3-carboxamide]",6.119
17,"CC(O)CNC(=O)C1CCN(Cc2ccc(NC(=O)N[C@@]34C[C@@H]5C[C@@](C)(C[C@@](C)(C5)C3)C4)c(F)c2)CC1 (stereo partly shown) [E2, 1-(4-(3-((1r,7r)-3,5-Dimethyladamantan-1-yl)ureido)-3-fluorobenzyl)-N-(2-hydroxypropyl)piperidine-4-carboxamide]",3.267
18,"CCN(CC)C(=O)C1CCCN(C(=O)c2ccc(NC(=O)N[C@]34C[C@@H]5C[C@@](C)(C[C@@](C)(C5)C3)C4)c(F)c2)C1 (stereo partly drawn) [B1, 1-(4-(3-((1r,3R,5S,7S)-3,5-Dimethyladamantan-1-yl)ureido)-3-fluorobenzoyl)-N,N-diethylpiperidine-3-carboxamide]",5.617
19,"C[C@]12C[C@@H]3C[C@](C)(C1)C[C@@](NC(=O)Nc1ccc(CN4CCCN(C(=O)CC5CCN(CCO)CC5)CC4)cc1F)(C3)C2 [I5, 1-((1r,3R,5S,7r)-3,5-Dimethyladamantan-1-yl)-3-(2-fluoro-4-((4-(2-(1-(2-hydroxyethyl)piperidin-4-yl)acetyl)-1,4-diazepan-1-yl)methyl)phenyl)urea]",4.937
20,"C=C(C)C(=O)N1CCCN(C(=O)C2CCCN(Cc3ccc(NC(=O)N[C@@]45C[C@@H]6C[C@@](C)(C[C@@](C)(C6)C4)C5)c(F)c3)C2)CC1 (stereo partly drawn) [G4, 1-((1r,3R,5S,7r)-3,5-Dimethyladamantan-1-yl)-3-(2-fluoro-4-((3-(4-methacryloyl-1,4-diazepane-1-carbonyl)piperidin-1-yl)methyl)phenyl)urea]",4.821
21,"CC(=O)N1CCCN(C(=O)C2CCCN(C(=O)c3ccc(NC(=O)N[C@@]45C[C@@H]6C[C@@](C)(C[C@@](C)(C6)C4)C5)c(F)c3)C2)CC1 (stereo partly drawn) [F1, 1-(4-(3-(4-Acetyl-1,4-diazepane-1-carbonyl)piperidine-1-carbonyl)-2-fluorophenyl)-3-((1r,3R,5S,7r)-3,5-dimethyladamantan-1-yl)urea]",6.801
22,"C[C@]12C[C@@H]3C[C@](C)(C1)C[C@@](NC(=O)Nc1ccc(C(=O)N4CCCC(C(=O)N5CCN(CCO)CC5)C4)cc1F)(C3)C2 (stereo partly drawn) [B4, 1-((1r,3R,5S,7r)-3,5-Dimethyladamantan-1-yl)-3-(2-fluoro-4-(3-(4-(2-hydroxyethyl)piperazine-1-carbonyl)piperidine-1-carbonyl)phenyl)urea]",6.516
23,"CN(C)C(=O)C1CCCN(Cc2ccc(NC(=O)N[C@@]34C[C@@H]5C[C@@](C)(C[C@@](C)(C5)C3)C4)c(F)c2)C1 (stereo partly drawn) [D2, 1-(4-(3-((1r,3R,5S,7r)-3,5-Dimethyladamantan-1-yl)ureido)-3-fluorobenzyl)-N,N-dimethylpiperidine-3-carboxamide]",5.354
24,"C[C@]12C[C@@H]3C[C@](C)(C1)C[C@@](NC(=O)Nc1ccc(CN4CCC(C(N)=O)CC4)cc1F)(C3)C2 [E1, 1-(4-(3-((1r,7r)-3,5-Dimethyladamantan-1-yl)ureido)-3-fluorobenzyl)piperidine-4-carboxamide]",5.557
25,"C[C@]12C[C@@H]3C[C@](C)(C1)C[C@@](NC(=O)Nc1ccc(C(=O)NC4CCC(C(=O)NC(CO)CO)CC4)cc1F)(C3)C2 (stereo partly drawn) [C7, N-(4-((1,3-Dihydroxypropan-2-yl)carbamoyl)cyclohexyl)-4-(3-((1r,3R,5S,7r)-3,5-dimethyladamantan-1-yl)ureido)-3-fluorobenzamide]",6.555
